Tests used:
Chlorella = assay: Selective effect on algae in test tubes (Table V), Chlorella; type: cell-based; conditions: for cells/ml: 13 days after innoculation, average of 3 samples
Method: (§1) Another laboratory experiment was run to further substantiate the selective effect of one of the algaecides, potassium ricinoleate. Two species of blue-green algae, Lyngbya and Cylindrospermum, and three species of green algae, Chlorella, Haematococcus and Stigeoclonium and Tribonema, a yellow-green alga of the division Chrysophycophyta, were treated as follows: Twenty ml test tubes of sterile BBM culture solution were innoculated with each alga. All species of algae were evaluated with three groups, control, 2.5 ppm algaecide and 7.5 ppm algaecide. Each group was run with triplicate samples.
(§2) Controls were counted 6 days after innoculation, algaecide was added to the treatment groups seven days after innoculation and all test tubes were counted thirteen days after innoculation. The results are shown in Table V. After seven days, there was a 31% reduction in the Lyngbya cultures at 2.5 ppm algaecide and a 40% reduction at 7.5 ppm. After seven days, there was a 60% reduction in Cylindrospermum cultures at 2.5 ppm algaecide and a 72% reduction at 7.5 ppm. […] After thirteen days, there was a 55% reduction in numbers at both 2.5 ppm and 7.5 ppm. After twenty days there was a 27% reduction at both concentrations. […] They are, like blue-green algae, often associated with taste and odor problems.

Haematococcus = assay: Selective effect on algae in test tubes (Table V), Haematococcus; type: cell-based; conditions: for cells/ml: 13 days after innoculation, average of 3 samples
Method: as §1, §2

Stigeoclonium = assay: Selective effect on algae in test tubes (Table V), Stigeoclonium; type: cell-based; conditions: for cells/ml: 13 days after innoculation, average of 3 samples
Method: as §1, §2

green algae [1] = assay: Field Experiment I, catfish pond, green algae and other phytoplankton; type: in vivo; conditions: 10 ppm
Method: (§3) 1, 1980, to Mar. 19, 1981.
(§4) On July 30, 1980, most ponds had numbers of blue-green algae exceeding 2×10^6 cells/liter. These algae were predominantly Oscillatoria,Microcystis and Anacystis with smaller numbers of Nostoc, Anabaena and Lyngbya. The experimental pond had 1.2×10^6 cells/liter composed mainly of Microcystis sp. Large numbers of copepods and rotifers were present. On July 30, the pond was treated with 10 ppm potassium ricinoleate by distributing a 30% aqueous solution evenly through the water column by pump from a small boat. […] This is further substantiated by the dry weights and chlorophyll a levels.

Zooplankton [2] = assay: Field Experiment I, catfish pond, zooplankton; type: in vivo, copepods and rotifers; conditions: 10 ppm
Method: as §3, §4

Chlorophyll a = assay: Field Experiment I, chlorophyll a; type: in vivo; conditions: 10 ppm
Method: as §3, §4

blue-green algae = assay: Field Experiment II, catfish pond, blue-green algae; type: in vivo, blue-green algae (Oscillatoria and Microcystis); conditions: 2 ppm
zooplankton [3] = assay: Field Experiment II, catfish pond, zooplankton; type: in vivo; conditions: 2 ppm
green algae [4] = assay: Field Experiment III, pond, green algae; type: in vivo; conditions: 2 ppm on 6/9/81
Method: In Field Experiment III, a small two acre pond was monitored for a complete year for plankton organisms as before. Oscillatoria and Microcystis were usually the prevalent blue-green algae. On 6/9/81 the pond was experiencing a bloom consisting completely of Oscillatoria. Channel catfish from the ponds had the characteristic earthy, musty taste and odor of 4 and 4 respectively on the 0 to 5 scale. The pond was treated on this date with 2 ppm potassium ricinoleate, one of the selective algaecides, as before.

[5] = tested on: sewage containing mostly green algae; assay: Sewage treatment test 1, mostly green algae; conditions: for cells/liter: after six days of aeration
Method: Two experiments were performed on sewage to further illustrate the utility of these algaecides. In the first experiment, sewage containing mostly green algae was treated with relatively high concentrations of potassium ricinoleate.

[6] = tested on: blue-green algae (Microcystis and Oscillatoria); assay: Sewage treatment test 2, dense bloom of blue-green algae; conditions: ten days after treatment
Excerpt: Ten days after treatment aeration was stopped and cell debris was allowed to settle.

[7] = in vivo
[8] = 2.5 and 7.5 ppm, after seven days
[9] = 7/31 post-treatment (treated July 30, 1980)
[10] = 11/21 post-treatment (normal winter reduction)

CCCCCC[C@@H](O)C/C=C\CCCCCCCC(=O)[O-].[K+]
effect (Chlorella; [8]): slightly inhibited
cells/ml (Chlorella; 2.5 ppm): 44000 cells/ml
cells/ml (Chlorella; 7.5 ppm): 49000 cells/ml
effect (Haematococcus; [8]): stimulated
cells/ml (Haematococcus; 2.5 ppm): 23000 cells/ml
cells/ml (Haematococcus; 7.5 ppm): 52000 cells/ml
effect (Stigeoclonium; [8]): remained unchanged
cells/ml (Stigeoclonium; 2.5 ppm): 1900 cells/ml
cells/ml (Stigeoclonium; 7.5 ppm): 1900 cells/ml
Cells/Liter of green algae (green algae [1]; [9]): 6.2 × 10^4 Cells/Liter
Cells/Liter of green algae (green algae [1]; 8/1 post-treatment): 5.0 × 10^4 Cells/Liter
Cells/Liter of green algae (green algae [1]; 8/6 post-treatment): 2.1 × 10^4 Cells/Liter
Cells/Liter of green algae (green algae [1]; 8/19 post-treatment): 0 Cells/Liter
Cells/Liter of green algae (green algae [1]; 9/6 post-treatment): 1.7 × 10^4 Cells/Liter
Cells/Liter of green algae (green algae [1]; 9/23 post-treatment): 4.5 × 10^5 Cells/Liter
Cells/Liter of green algae (green algae [1]; [10]): 2.5 × 10^3 Cells/Liter
Cells/Liter of green algae (green algae [1]; 12/14 post-treatment): 0 Cells/Liter
numbers of other phytoplankton (green algae [1]; seven days after treatment): essentially unchanged or increased in numbers
Zooplankton #/Liter (Zooplankton [2]; [9]): 2531 #/Liter
Zooplankton #/Liter (Zooplankton [2]; 8/1 post-treatment): 2500 #/Liter
Zooplankton #/Liter (Zooplankton [2]; 8/6 post-treatment): 4050 #/Liter
Zooplankton #/Liter (Zooplankton [2]; 8/19 post-treatment): 2025 #/Liter
Zooplankton #/Liter (Zooplankton [2]; 9/6 post-treatment): 4050 #/Liter
Zooplankton #/Liter (Zooplankton [2]; 9/23 post-treatment): 506 #/Liter
Zooplankton #/Liter (Zooplankton [2]; [10]): 1012 #/Liter
Zooplankton #/Liter (Zooplankton [2]; 12/14 post-treatment): 1518 #/Liter
numbers of zooplankton (Zooplankton [2]; seven days after treatment): essentially unchanged or increased in numbers
Chlorophyll a (Chlorophyll a; [9]): .000 absorbance at 663 nm
Chlorophyll a (Chlorophyll a; 8/1 post-treatment): .064 absorbance at 663 nm
Chlorophyll a (Chlorophyll a; 8/6 post-treatment): .000 absorbance at 663 nm
Chlorophyll a (Chlorophyll a; 8/19 post-treatment): .002 absorbance at 663 nm
Chlorophyll a (Chlorophyll a; 9/6 post-treatment): .240 absorbance at 663 nm
Cells/liter bluegreen algae (blue-green algae; 5/26/81 B post-treat, 4 p.m., Deep, prevalent Mic): 4.2 × 10^5 Cells/liter
Cells/liter bluegreen algae (blue-green algae; 5/26/81 C post-treat, 4 p.m., Shallow, prevalent Ped): 0 Cells/liter
Cells/liter bluegreen algae (blue-green algae; 5/27/81 D, 9:40 p.m., Deep, prevalent Ped): 1.18 × 10^4 Cells/liter
Cells/liter bluegreen algae (blue-green algae; 5/27/81 E, 9:40 p.m., Shallow, prevalent Ped): 0 Cells/liter
Cells/liter bluegreen algae (blue-green algae; 5/28/81 F, 7 a.m., prevalent Ped): 5.9 × 10^3 Cells/liter
Cells/liter bluegreen algae (blue-green algae; 5/28/81 G, 11 a.m., prevalent Ped): 0 Cells/liter
blue-green algae after treatment (blue-green algae; after two days): essentially no blue-green algae present
Zoo #'s/liter (zooplankton [3]; 5/26/81 B post-treat, 4 p.m., Deep): 755 #'s/liter
Zoo #'s/liter (zooplankton [3]; 5/26/81 C post-treat, 4 p.m., Shallow): 2270 #'s/liter
Zoo #'s/liter (zooplankton [3]; 5/27/81 D, 9:40 p.m., Deep): 0 #'s/liter
Zoo #'s/liter (zooplankton [3]; 5/27/81 E, 9:40 p.m., Shallow): 1510 #'s/liter
Zoo #'s/liter (zooplankton [3]; 5/28/81 F, 7 a.m.): 756 #'s/liter
Zoo #'s/liter (zooplankton [3]; 5/28/81 G, 11 a.m.): 2270 #'s/liter
zooplankton after treatment (zooplankton [3]; through June, 1981): remained unchanged
Cells/liter green algae (green algae [4]; 6/10/81): 3.0 × 10^3 Cells/liter
Cells/liter green algae (green algae [4]; 6/12/81): 1.4 × 10^3 Cells/liter
Cells/liter green algae (green algae [4]; 6/22/81): 3.5 × 10^5 Cells/liter
cells/liter ([5]; 18.4 ppm): 1.91 × 10^5 cells/liter
cells/liter ([5]; 46.0 ppm): 1.33 × 10^5 cells/liter
cells/liter ([5]; 92.0 ppm): 2.30 × 10^5 cells/liter
cells/liter ([5]; 184.1 ppm): 2.72 × 10^5 cells/liter
effect on green algae ([5]; six days after treatment): somewhat stimulated
cells/liter ([6]; 2.5 ppm): 8.3 × 10^5 cells/liter
cells/liter ([6]; 5.0 ppm): 7.9 × 10^5 cells/liter
cells/liter ([6]; 10.0 ppm): 6.6 × 10^5 cells/liter
cells/liter ([6]; 15.0 ppm): 4.4 × 10^5 cells/liter
state of enumerated suspended cells [6]: appeared dead
taste or odor of cooked fish (juvenile channel catfish; 10 ppm, samples February through June, 1981): no taste or odor problems
health of juvenile catfish (juvenile channel catfish; in vivo): fed and otherwise appeared healthy
oxygen depletion problems [7]: no oxygen depletion problems noted
